2 molecules from patent US20090081183A1, “HIV Transcription Repressor Complex and Compositions and Methods Based Thereon” (priority 1997, published 2009) can be followed below.

Where two headings read alike, the source gives them in different places.

The subject of assay [1] is RCS oligonucleotide (−10 to +27 of HIV-1 LTR). It is filed as binding.
A further assay deals with HIV-1. Conditions: HeLa cells cotransfected with pNL4-3 (CXCR4) or pYU-2 (CCR5).
Assay [2] deals with HIV-1 LTR. As to the kind of experiment: Tat-activated, LTR-driven CAT expression, plasmid-based reporter, transient cotransfection. It is filed as cell-based. Conditions: data not shown. The method, then:
(§1) Cell lines transfections and assays. Transfections of HeLa cells were performed as previously described (49). HeLa-CD4-LTR (9) cells were grown in DMEM supplemented with 10% FCS and transfected with 20 μg plasmid DNA (prepared using EndoFree plasmid kit, Qiagen, Valencia, Calif.) by calcium phosphate coprecipitation as per manufacturer's instructions (ProFection system, Promega, Madison, Wis.). After 30 minutes at room temperature, the solution was added to the cells (2.5-4×10^5 cells/plate). Twelve hours after transfection, the cells were washed with PBS and fed fresh medium. Forty-eight hours later the cells were harvested, cellular extracts prepared, and CAT assays performed as previously described (49). To control for the effect of transcription factor overexpression on general cellular promoters a reporter construct driven by the beta-actin promoter, pH[…]-actin-luciferase (66), was used in cotransfection and CAT expression normalized for luciferase activity. Other plasmids used have been previously described (2, 49). […] Up to 30 μl of cellular extract (normalized for protein concentration) in a final volume of 130 μl was used for luciferase reactions.

The test system of assay [3] is HIV-1 LTR. The assay can be described thus: Tat-activated integrated LTR-CAT reporter assay in HeLa-CD4-LTR cells. It is filed as cell-based. Here is the method:
as §1
The LTR reporter carried by HeLa-CD4-LTR cell line exists within the native chromatin structure of the genome. […]

Consider “YY1: cellular transcription factor that binds the RCS and inhibits LTR-driven HIV transcription (SEQ ID NO: 3)”, for which the “Complex formation with the RCS in EMSA” value in assay [1] (20 ng to 100 ng added in the presence of 10 ng of LSF) is on record as “increasing levels of complex formation”; in assay [1] (up to 100 ng protein alone) it was “did not form a detectable complex”. The “HIV-1 production (p24gag in culture supernatant)” value with HIV-1 is recorded as “dose-dependent inhibition”. Also, the “Tat-activated, LTR-driven CAT expression (plasmid-based reporter)” value in the assay with HIV-1 LTR [2] is given as “inhibited Tat-activated, LTR-driven CAT expression”. For the same molecule, in the assay with HIV-1 LTR [3] (200 ng pAR-Tat, 2.5 μg CMV expression plasmid, normalized to β-actin-luciferase), the “Tat-activated CAT expression from integrated LTR reporter” value is “inhibited Tat-activated CAT activity”.
For `CC(/C=C/C(=O)NO)=C\[C@@H](C)C(=O)c1ccc(N(C)C)cc1` [trichostatin-A, reference compound], the “Effect on YY1-mediated repression of integrated LTR-CAT expression” value with HIV-1 LTR [3] (with YY1 transfection, trichostatin-A added to culture medium (data not shown)) is listed as “blocked”.
